For assay [1], the system named is MOLM13. Kind of assay: Tumor growth inhibitory activities in nude mice xenograft model inoculated with human leukemia cells MOLM13. It is filed as in vivo. The note with it: Mus musculus, MOLM-13, po, read-out: TGIR (%) (measurement date); for inhibition in vivo at 50 mg/kg: 50 mg/kg orally once a day. The method, then: Pharmacological Test Example 5
Tumor Growth Inhibitory Activities in Nude Mice Xenograft Model Inoculated with Human Leukemia Cells
Human leukemia cells MOLM13 (subdivided from Hayashibara Biochemical Laboratories, Inc.) were subcutaneously transplanted into nude mice. […] The test compound suspended or dissolved in 0.5% methylcellulose was orally administered at a dose of 0.1 ml per 10 g body weight once a day for 9 days. For the control group, only vehicle was administered.
The tumor growth inhibition rate (TGIR) was calculated as follows:
The tumor growth inhibition rate (TGIR)=(1−TX/CX)×100
wherein CX represents the volume of tumor at day X for the control group when the tumor volume at the day of the start of the administration (day 1) was presumed to be 1; and TX represents the volume of tumor at day X for test compound administration groups.
(In general: A xenograft is tissue or cells of one species grown in another, often human tumour cells in immunodeficient mice.)

For assay [2], the system named is MOLM13. Description: Cell growth inhibitory activities on cultured human leukemia cells MOLM-13 (WST-1). Format: cell-based. The note with it: 3 days culture. (In general: Formazan colour is commonly taken as a measure of viable cells.)
The subject of a further assay is MV4-11. Description: Cell growth inhibitory test MV4-11 (WST-1). It is filed as cell-based, human. The note with it: MV4-11 cells, 3 days culture. In short, it runs like this: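 MV4-11 leukemia cells (3×10^3/well, DMEM + 10% FCS) were cultured 3 days with compound in DMSO at 5% CO2. Growth read by WST-1 absorbance at 450 nm (ref 650 nm), normalized to untreated (100%) and cell-free (0%) wells; IC50 from multiple concentrations.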

Broadly, the IC50 is the concentration at which inhibition is half-maximal.

Where a name gives a salt, the structure may show the parent alone. Read-outs that look alike come from different tables or passages of the source. Some results are limits rather than exact numbers.

As to `COc1cc2nccc(Oc3ccc(NC(=O)NCCC(C)(C)C)cc3)c2cc1OC` [Compound 1, 1-[4-(6,7-Dimethoxy-quinolin-4-yloxy)-phenyl]-3-(3,3-dimethyl-butyl)-urea hydrochloride], in the assay on MOLM13 [1] (264 h, day 11), the inhibition in vivo at 50 mg/kg worked out at 53.8%. Moreover, the IC50 is 1 nM in the assay on MOLM13 [2] (Homo sapiens, MOLM-13, 72 h) and less than 1 nM in the assay on MV4-11 (Homo sapiens, MV4-11, 72 h).

`COc1cc2nccc(Oc3c(Cl)cc(NC(=O)NCCC(C)(C)C)cc3Cl)c2cc1OC` [Compound 6, 1-[3,5-Dichloro-4-(6,7-dimethoxy-quinolin--4-yloxy)-phenyl]-3-(3,3-dimethyl-butyl)-urea]: the IC50 is 21 nM in the assay on MOLM13 [2] (Homo sapiens, MOLM-13, 72 h) and 8 nM in the assay on MV4-11 (Homo sapiens, MV4-11, 72 h).

As for `COc1cc2nccc(Oc3ccc(NC(=O)NCCC(C)(C)C)cc3Cl)c2cc1OC` [Compound 8, 1-[3-Chloro-4-(6,7-dimethoxy-quinolin-4-yloxy)-phenyl]-3-(3,3-dimethyl-butyl)-urea], the IC50 in the assay on MOLM13 [2] (Homo sapiens, MOLM-13, 72 h) was 3 nM; in the assay on MV4-11 (Homo sapiens, MV4-11, 72 h) it was 1 nM.

`COc1cc2nccc(Oc3ccc(NC(=O)NCCC(C)(C)C)cc3F)c2cc1OC` [Compound 10, 1-[4-(6,7-Dimethoxy-quinolin-4-yloxy)-3-fluoro-phenyl]-3-(3,3-dimethyl-butyl)-urea hydrochloride]: the inhibition in vivo at 50 mg/kg in the assay on MOLM13 [1] (240 h, day 10) came to 84.8%. In addition, the IC50 in the assay on MOLM13 [2] (Homo sapiens, MOLM-13, 72 h) was 2 nM; in the assay on MV4-11 (Homo sapiens, MV4-11, 72 h), less than 1 nM.

As to `COc1cc2c(Oc3ccc(NC(=O)NCCC(C)(C)C)c(F)c3)ccnc2cc1OCCN1CCOCC1` [Compound 41, 1-(3,3-Dimethyl-butyl)-3-{2-fluoro-4-[6-methoxy-7-(2-morpholin-4-yl-ethoxy)-quinolin-4-yloxy]-phenyl}-urea hydrochloride], the IC50 in the assay with MOLM13 [2] (hydrochloride) was 75 nM; in the assay on MV4-11 (hydrochloride) it was 25 nM.

With `COc1cc2c(Oc3ccc(NC(=O)NCCC(C)(C)C)c(F)c3)ccnc2cc1OCCN1CCCCC1` [Compound 43, 1-(3,3-Dimethyl-butyl)-3-{2-fluoro-4-[6-methoxy-7-(2-piperidin-1-yl-ethoxy)-quinolin-4-yloxy]-phenyl}-urea hydrochloride], the inhibition in vivo at 50 mg/kg in the assay with MOLM13 [1] (240 h, day 10) came to 98.1%. For the same compound, the IC50 in the assay with MOLM13 [2] (Homo sapiens, MOLM-13, 72 h) amounted to 22 nM; with MV4-11 (Homo sapiens, MV4-11, 72 h) it was 12 nM.

In the case of `COc1cc2c(Oc3ccc(NC(=O)NCCC(C)(C)C)cc3F)ccnc2cc1OCCN1CCCCC1` [Compound 44, 1-(3,3-Dimethyl-butyl)-3-{3-fluoro-4-[6-methoxy-7-(2-piperidin-1-yl-ethoxy)-quinolin-4-yloxy]-phenyl}-urea], the inhibition in vivo at 12.5 mg/kg with MOLM13 [1] (216 h, 12.5 mg/kg orally once a day, day 9) was determined as 99.6%. Further, the inhibition in vivo at 25 mg/kg in the assay on MOLM13 [1] (216 h, 25 mg/kg orally once a day, day 9) stood at 99.8%. Also, the IC50 in the assay on MOLM13 [2] (Homo sapiens, MOLM-13, 72 h) is 3 nM; in the assay with MV4-11 (Homo sapiens, MV4-11, 72 h) it was 2 nM.
